In patent US20180030080A1, “Phosphoramidate nucleoside prodrug for treating viral diseases and cancer, processes for their preparation and their use” (ASAVI, LLC, priority 2016, published 2018):
Like-named read-outs stand apart in the source and are kept apart here.

How the values were obtained:
[1] = tested on: xenograft models of human pancreatic cancer; details: in vivo; cited from earlier work
HCV replicon = details: cited from earlier work
[2] = in the clinic; cited from earlier work
wild-type HIV-1 = details: cited from earlier work
HIV [3] = details: in PBMCs, relative to TFV; cited from earlier work
[4] = 28-day toxicity studies in multiple species; cited from earlier work
HIV [5] = details: most potent and least cytotoxic analog; cited from earlier work
HBV = assay: Anti-HBV activity in the AD-38 cell line using real-time quantitative PCR; type: cell-based
Description: Anti-HBV activity of prodrugs of general formula 1 determination in the AD-38 cell line using a real-time quanitative PCR. a) Cell cultures. HepG2 AD38 cell line, harboring an integrated over-the-length HBV genomic DNA (Lander S, et. al, Antimicrobal Agents and Chemotherapy, 1997, pg. 1715-1720) were provided by Dr. C. Seeger, Fox Chase Cancer Center, Philadelphia, Pa.). Cells were grown in complete media (DMEM/F12 with 2 mM L-Glutamine (Thermo Scientific, Cat #11320033), 10% Fetal Bovine Serum (ThermoFisher Scientific, Cat#), 1% Antibiotic-antimitotic solution (ThermoFisher Scientific, Cat#15240096), and 0.3 μg/ml tetracyclin (Sigma, Cat # T7660-5G). Cells were plated onto Corning Biocoat 96-well plates (Corning, Cat #356407) in 225 ul of complete media (without teracyclin), 20000 cells/well. The prodrugs of general formula 1 were dissolved first in DMSO (Sigma cat. D2650), then in DMEM/F12 and 9 serial 3× dilutions were prepared and added to cells in 22.5 μl. The final prodrugs concentrations ranged from 10 μM to 1 nM. Cells grown in the presence of tetracyclin were used as a positive control, as HBV replication in this cell line is turned off by thetracyclin. Cell plates were incubated for 4 days at 37 C, 5% CO2. b) HBV DNA isolation. After 4 days, viral DNA was isolated from culture supernatants using PureLink® Pro 96 Genomic DNA Purification Kit (ThermoFisher Scientific, Cat # K183104A), according to manufacturer's recommendations. Eluted DNA samples were stored at −20 C. c) Quantitative real-time PCR (qPCR). PCR was performed on the CFX96™ Real-Time System (Bio-Rad, Hercules, Calif.) using AmpliTaq Gold® DNA Polymerase (Applied Biosystems®).
Ct values (cycle threshold) were obtained for each prodrug sample and normalized to untreated cells, according to formula E=(1/(1+100%))̂(Ct[studied prodrug sample]−Ct[K-]), where E is a normalized expression of studied gene, Ct[K-] and Ct[studied prodrug sample] are Ct values of untreated cells and studied prodrug sample. Inhibition curves were obtained and EC50 values were calculated using the Graph Prizm software (Table 3).

[6] = Cytotoxicity (viability, CC50) reported with the anti-HBV test; type: cell-based; details: human, HepG2 AD38 cells
HepG2 AD38 cell line = assay: as above; type: cell-based; details: concentration not given
HBV wild-type = details: against both the wild-type and resistant mutant; cited from earlier work
[7] = tested on: HBV lamivudine-entecavir resistant clone (L180M+M204V+S202G); details: resistant mutant (L180M+M204V+S202G); cited from earlier work
HCV replicon gT1b = assay: HCV replicon assay, genotype gT1b; type: cell-based; details: Hepatitis C virus
Description: (§1) Anti-HCV activity (EC50) and cytotoxicity (CC50) of prodrugs of general formula 1. The HCV replicon assay was used to determine the antiviral activity of chemotherapeutic agents of general formula 1 (test compounds). Sovaldi (PSI-7977) was used as the reference drug. The test cell line used in the HCV Replicon Assay was the human hepatoma cell line Huh7 incorporating the HCV replicons synthesized by an outside vendor. 96-well plates were seeded with cells at a density of 7.5×10^3 cells per well in 50 μl of assay media. The compound stock solution was made up freshly in an assay medium (DMEM 1×, Cellgro; cat. #10-013-CV) as a 2× stock. A total of 11 serial 3-fold dilutions of test compounds were prepared from the 2× stock in the assay media ranging from 20 nM-0.2 pM final concentrations. At least 4 hours after seeding the cells, compound treatment was initiated by adding 50 μl of compound dilution to the plates. […] The final DMSO concentration was 0.5%. Cells and inhibitors were incubated for 3 days at 37° C./5% CO2. The media was removed from the plates by gentle tapping. The cells were fixed with 100 μl 1:1 acetone:methanol for 1 minute, washed three times with PBS buffer, and then blocked with 150 μl/well 10% Fetal Bovine Serum (FBS) in PBS for 1 hour at room temperature. The cells were then washed three times with PBS buffer and incubated with 100 μl/well anti-hepatitis C core mAb (Affinity BioReagents; cat. # MA1-080, 1 mg/ml stock diluted 1:4,000 in 10% FBS-PBS) for 2 hours at 37° C. Then, the cells were washed three times with PBS and incubated with 100 μl/well HRP-Goat Anti-Mouse antibody (diluted 1:3.500 in 10% FBS-PBS) for 1 hour at 37° C. The cells were then washed three times with PBS and developed with an OPD solution, 100 μl/well (1 OPD tablet+12 ml citrate/phosphate buffer+5 μl 30% H2O2 per plate), for 30 minutes in the dark at room temperature. The reaction was stopped with 2N H2SO4 (100 μl/well), and the absorbance was measured at A490 X on a Victor^3 V 1420 multilabel counter (Perkin Elmer). The EC50 values were calculated for test compounds from the resulting best-fit equations determined by Xlfit software (Table 1).

HCV replicon gT1a = assay: HCV replicon assay, genotype gT1a; type: cell-based; details: Hepatitis C virus, mean
Description: as §1, with “The cells were then washed three times with PBS and developed with an OPD solution, 100 μl/well (1 OPD tablet+12 ml citrate/phosphate buffer+5 μl 30% H2O2 per plate), for 30 minutes in the dark at room temperature.” left out

HCV replicon gT2a = assay: HCV replicon assay, genotype gT2a; type: cell-based; details: Hepatitis C virus, mean
Description: (§2) Anti-HCV activity (EC50) and cytotoxicity (CC50) of prodrugs of general formula 1. The HCV replicon assay was used to determine the antiviral activity of chemotherapeutic agents of general formula 1 (test compounds). Sovaldi (PSI-7977) was used as the reference drug. The test cell line used in the HCV Replicon Assay was the human hepatoma cell line Huh7 incorporating the HCV replicons synthesized by an outside vendor. 96-well plates were seeded with cells at a density of 7.5×10^3 cells per well in 50 μl of assay media. The compound stock solution was made up freshly in an assay medium (DMEM 1×, Cellgro; cat. #10-013-CV) as a 2× stock. A total of 11 serial 3-fold dilutions of test compounds were prepared from the 2× stock in the assay media ranging from 20 nM-0.2 pM final concentrations. At least 4 hours after seeding the cells, compound treatment was initiated by adding 50 μl of compound dilution to the plates. The final concentrations of compound therefore ranged from 10 nM to 0.1 pM when diluted 1:1 in culture media. The final DMSO concentration was 0.5%. Cells and inhibitors were incubated for 3 days at 37° C./5% CO2. The media was removed from the plates by gentle tapping. The cells were fixed with 100 μl 1:1 acetone:methanol for 1 minute, washed three times with PBS buffer, and then blocked with 150 μl/well 10% Fetal Bovine Serum (FBS) in PBS for 1 hour at room temperature. The cells were then washed three times with PBS buffer and incubated with 100 μl/well anti-hepatitis C core mAb (Affinity BioReagents; cat. # MA1-080, 1 mg/ml stock diluted 1:4,000 in 10% FBS-PBS) for 2 hours at 37° C. Then, the cells were washed three times with PBS and incubated with 100 μl/well HRP-Goat Anti-Mouse antibody (diluted 1:3.500 in 10% FBS-PBS) for 1 hour at 37° C. […] The reaction was stopped with 2N H2SO4 (100 μl/well), and the absorbance was measured at A490 X on a Victor^3 V 1420 multilabel counter (Perkin Elmer). The EC50 values were calculated for test compounds from the resulting best-fit equations determined by Xlfit software (Table 1).

HCV replicon gT3a = assay: HCV replicon assay, genotype gT3a; type: cell-based; details: Hepatitis C virus, mean
Description: as §2, with “The final concentrations of compound therefore ranged from 10 nM to 0.1 pM when diluted 1:1 in culture media.” left out

HCV replicon gT4a = assay: HCV replicon assay, genotype gT4a; type: cell-based; details: Hepatitis C virus, mean
Description: as §2, with “The final concentrations of compound therefore ranged from 10 nM to 0.1 pM when diluted 1:1 in culture media.” left out

HCV replicon gT5a = assay: HCV replicon assay, genotype gT5a; type: cell-based; details: Hepatitis C virus, mean
Description: as §2, with “The final concentrations of compound therefore ranged from 10 nM to 0.1 pM when diluted 1:1 in culture media.” left out

Huh7 = assay: Cytotoxicity in Huh7 cells (ATPLite); type: cell-based, human; details: at a concentration of 100 μM
Description: The cytotoxicity of the test compounds was studied in parallel using the same cell line, Huh7. Cell viability was determined using the ATPLite Kit (Perkin-Elmer, Boston, USA), according to manufacturer's instructions. 96-well black/transparent bottom plates were seeded with cells at a density of 7.5×10^3 cells per well in 50 μl medium. After 18 hours, compound treatment was initiated by adding 50 μl of compound dilution into the plates. Each compound dilution was tested in triplicates. The cells and inhibitors were then incubated for 96 hours at 37° C./5% CO2. The plates were washed twice with PBS (0.2 ml/well), and then lysed by adding lysis buffer, 0.05 ml/well (all reagents were included with the ATPLite Kit). After rocking for 5 min on a rocking platform, substrate buffer was added (0.05 ml/well). After additional 5-min incubation, the plates were kept in dark for 10 min, and the luminescence was read using TopCount NXT (Packard, Perkin Elmer). CC50 values for all test compounds were determined using XLfit 4.1 software.

For `C[C@H](NP(=O)(OC[C@H]1O[C@@H](n2ccc(N)nc2=O)C(F)(F)[C@@H]1O)Oc1ccccc1)C(=O)OCc1ccccc1` (stereo partly drawn) [NUC-1031, Gemcitabin-5′-phosphoramidate], the tumor volume [1] is listed as “significantly reduced tumor volume”.
For `COc1nc(N)nc2c1ncn2[C@@H]1O[C@H](COP(=O)(N[C@@H](C)C(=O)OCC(C)(C)C)Oc2cccc3ccccc23)[C@@H](O)[C@@]1(C)O` (stereo partly drawn) [INX-08189], the EC50 (HCV replicon) is given as 0.01 µM and the cardiovascular toxicity [2] is given as “severe cardiovascular toxicity”.
In the case of `CCOC(=O)[C@H](C)N[P@](=O)(OC[C@@H]1OC[C@H](n2cc(C)c(=O)[nH]c2=O)O1)Oc1ccc(Br)cc1` [DOT-phosphoramidate, D-dioxolane-thymine 5′-(4-bromophenylethyloxy-L-alanyl-phosphate)], the “more potency relative to DOT” value (wild-type HIV-1) is listed as 75 fold.
In the case of `CC(C)OC(=O)[C@H](C)N[P@](=O)(CO[C@H](C)Cn1cnc2c(N)ncnc21)Oc1ccccc1` [TAF, (S)-Isopropyl 2-(((S)-((((R)-1-(6-amino-9H-purin-9-yl)propan-2-yl)oxy)methyl)(phenoxy)-phosphoryl)amino)propanoate], the “more potent than TFV” value (HIV [3]) is listed as 400 fold.
In the case of `CC(C)OC(=O)[C@H](C)N[P@](=O)(CO[C@@H]1C=C(F)C(n2cnc3c(N)ncnc32)O1)Oc1ccccc1` (stereo partly drawn) [GS-9131], the renal findings [4] is listed as “no significant renal findings”.
In the case of `CCOC(=O)[C@H](C)N[P@](=O)(OC[C@@H]1OC[C@H](n2cnc3c(NC4CC4)ncnc32)O1)Oc1ccccc1` [dioxolane-A mono-phosphoramidate], the EC50 (HIV [5]) is given as 0.086 µM.
For `C=CCOC(=O)[C@H](C)N[P@](=O)(OC[C@@H]1O[C@H](n2cc(C)c(=O)[nH]c2=O)[C@H](F)[C@H]1O)Oc1ccccc1` [1.2(67), allyl (S)-2-{(S)-[(2S,3S,4R,5S)-4-fluoro-3-hydroxy-5-(5-methyl-2,4-dioxo-3,4-dihydro-2H-pyrimidin-1-yl)-tetrahydro-furan-2-ylmethoxy]-phenoxy-phosphorylamino}-propanoate], the EC50 (HBV; Hepatitis B virus, 96 h) was 0.76 ± 0.11 µM, the “inhibition, %” value (HBV; against HBV, concentration not given) was 88% and the CC50 [6] was > 30 µM. For the same compound, the “viability, %” value (HepG2 AD38 cell line) was 95%.
In the case of “2′-Fluoro-6′-methylene-carbocyclic adenosine phosphoramidate [5′-phosphoramidate of FMCA]”, the “more potent than FMCA” value (HBV wild-type) is given as 10 fold and the EC50 [7] is given as 0.054 µM.
Compound `CC(C)OC(=O)[C@H](C)NP(=O)(OC[C@H]1O[C@@H](n2ccc(=O)[nH]c2=O)[C@](C)(F)[C@@H]1O)Oc1ccccc1` (stereo partly drawn) [PSI-7851, reference compound] has an IC50 (HCV replicon gT1b; GT1B, read-out: IC50 HCV gT1b 10% FBS (mean)) of 0.061 µM, an IC50 (HCV replicon gT1b; gT1b, 40% NHS, mean, read-out: IC50 HCV gT1b 40% NHS (mean)) of 0.08 µM and an IC50 (HCV replicon gT1a) of 0.103 µM. The IC50 (HCV replicon gT2a) was 0.039 µM, the IC50 (HCV replicon gT3a) was 0.152 µM and the IC50 (HCV replicon gT4a) was 0.35 µM. For the same compound, the IC50 (HCV replicon gT5a) was 0.395 µM and the Cell death (Huh7) was 31%.
